Measured values reported in patent US20120214862A1, “MODULATION OF FACTOR 7 EXPRESSION” (ISIS Pharmaceuticals, Inc., priority 2009, published 2012).
In the oligonucleotide strings, read from the 5' end, every base follows the letter of its sugar. An asterisk marks phosphorothioate; unmarked linkages are phosphodiester. Other units and linkages are bracketed, terminal groups are in braces. A string of capitals states the bases alone. e = 2'-O-(2-methoxyethyl) (MOE); [5mC] = 5-methylcytosine; d = 2'-deoxy (DNA)

System: human Factor 7 mRNA
Test: Inhibition of human Factor 7 mRNA by 2-10-2 MOE shortmers in HepB3 cells, electroporation, 1,000 nM
Type: cell-based
Settings: electroporation, 1,000 nM oligonucleotide, approximately 24 hours, relative to untreated control cells
Excerpt: Short antisense oligonucleotides (shortmers) were designed to target a Factor 7 nucleic acid. The shortmers in Table 17 were designed as 2-10-2 MOE gapmers. The gapmers are 14 nucleotides in length, wherein the central gap segment is comprised of 10 2′-deoxynucleotides and is flanked on both sides (in the 5′ and 3′ directions) by wings comprising 2 nucleotides each. Each nucleotide in the 5′ wing segment and each nucleotide in the 3′ wing segment has a 2′-MOE modification. The internucleoside linkages throughout each gapmer are phosphorothioate (P═S) linkages. All cytidine residues throughout each gapmer are 5-methylcytidines.
Shortmers were evaluated for their ability to reduce human Factor 7 mRNA in HepB3 cells and compared with one 5-10-5 chimeric oligonucleotide from Table 16, ISIS 407939. HepB3 cells at a density of 20,000 cells per well in a 96-well plate were transfected using electroporation with 1,000 nM of antisense oligonucleotide. After a treatment period of approximately 24 hours, RNA was isolated from the cells and Factor 7 mRNA levels were measured by real-time RT-PCR, as described herein. Factor 7 mRNA levels were adjusted according to total RNA content as measured by RIBOGREEN®. Results are presented in Table 17 as percent inhibition of Factor 7 mRNA, relative to untreated control cells. ISIS 407939 is the first oligonucleotide in […] to which the shortmers were compared, and is marked by an asterisk (*).

Substance | % inhibition of human Factor 7 mRNA [%]
435488 (antisense e[5mC]*eA*dG*dT*d[5mC]*d[5mC]*dT*dG*dG*dG*dT*d[5mC]*eA*eT) [compound 435488] | 17
435489 (antisense e[5mC]*eT*dG*dG*dT*dG*dT*dA*d[5mC]*dA*d[5mC]*d[5mC]*e[5mC]*e[5mC]) [compound 435489] | 72
435490 (antisense e[5mC]*e[5mC]*dT*dG*dG*dT*dG*dT*dA*d[5mC]*dA*d[5mC]*e[5mC]*e[5mC]) [compound 435490] | 49
435491 (antisense e[5mC]*e[5mC]*d[5mC]*dT*dG*dG*dT*dG*dT*dA*d[5mC]*dA*e[5mC]*e[5mC]) [compound 435491] | 61
435492 (antisense eA*e[5mC]*d[5mC]*d[5mC]*dT*dG*dG*dT*dG*dT*dA*d[5mC]*eA*e[5mC]) [compound 435492] | 45
435493 (antisense eG*eA*d[5mC]*d[5mC]*d[5mC]*dT*dG*dG*dT*dG*dT*dA*e[5mC]*eA) [compound 435493] | 58
435494 (antisense eA*eG*dA*d[5mC]*d[5mC]*d[5mC]*dT*dG*dG*dT*dG*dT*eA*e[5mC]) [compound 435494] | 47
435495 (antisense eG*eA*dG*dA*d[5mC]*d[5mC]*d[5mC]*dT*dG*dG*dT*dG*eT*eA) [compound 435495] | 27
435496 (antisense eG*eG*dA*dG*dA*d[5mC]*d[5mC]*d[5mC]*dT*dG*dG*dT*eG*eT) [compound 435496] | 47
435497 (antisense eG*eG*dG*dA*dG*dA*d[5mC]*d[5mC]*d[5mC]*dT*dG*dG*eT*eG) [compound 435497] | 27
435498 (antisense eT*eG*dG*dG*dA*dG*dA*d[5mC]*d[5mC]*d[5mC]*dT*dG*eG*eT) [compound 435498] | 37
435499 (antisense e[5mC]*eT*dG*dG*dG*dA*dG*dA*d[5mC]*d[5mC]*d[5mC]*dT*eG*eG) [compound 435499] | 59
435500 (antisense eA*e[5mC]*dT*dG*dG*dG*dA*dG*dA*d[5mC]*d[5mC]*d[5mC]*eT*eG) [compound 435500] | 49
435501 (antisense eT*eA*d[5mC]*dT*dG*dG*dG*dA*dG*dA*d[5mC]*d[5mC]*e[5mC]*eT) [compound 435501] | 51
435502 (antisense eG*eT*dA*d[5mC]*dT*dG*dG*dG*dA*dG*dA*d[5mC]*e[5mC]*e[5mC]) [compound 435502] | 69
435503 (antisense eT*eG*dT*dA*d[5mC]*dT*dG*dG*dG*dA*dG*dA*e[5mC]*e[5mC]) [compound 435503] | 17
435504 (antisense eA*eT*dG*dT*dA*d[5mC]*dT*dG*dG*dG*dA*dG*eA*e[5mC]) [compound 435504] | 8
435634 (antisense eT*eG*dA*dA*dA*dT*d[5mC]*dT*d[5mC]*dT*dG*d[5mC]*eA*eG) [compound 435634] | 5
435635 (antisense e[5mC]*eA*dT*dG*dA*dT*dG*dA*dA*dA*dT*d[5mC]*eT*e[5mC]) [compound 435635] | 0
435636 (antisense eG*eA*dG*dA*d[5mC]*d[5mC]*dA*dT*dG*dA*dT*dG*eA*eA) [compound 435636] | 13
435637 (antisense eT*eG*dA*dA*dG*d[5mC]*d[5mC]*d[5mC]*dA*dA*dG*d[5mC]*eA*eG) [compound 435637] | 11
435638 (antisense eA*eG*d[5mC]*d[5mC]*d[5mC]*dT*dG*dA*dA*dG*d[5mC]*d[5mC]*e[5mC]*eA) [compound 435638] | 55
435639 (antisense eT*e[5mC]*d[5mC]*dA*dG*dA*dA*d[5mC]*dA*dG*d[5mC]*dT*eT*e[5mC]) [compound 435639] | 31
435640 (antisense eT*eG*dT*dA*dA*dG*dA*dA*dA*dT*d[5mC]*d[5mC]*eA*eG) [compound 435640] | 2
435641 (antisense eG*eG*dT*d[5mC]*d[5mC]*d[5mC]*d[5mC]*dA*dT*d[5mC]*dA*d[5mC]*eT*eG) [compound 435641] | 51
435642 (antisense eA*e[5mC]*dA*d[5mC]*dT*dG*dG*dT*d[5mC]*d[5mC]*d[5mC]*d[5mC]*eA*eT) [compound 435642] | 60

Substance | % inhibition of human Factor 7 mRNA [%]
435643 (antisense e[5mC]*eT*dT*dG*d[5mC]*dA*dG*dG*dA*dG*d[5mC]*d[5mC]*e[5mC]*e[5mC]) [compound 435643] | 51
435644 (antisense eT*eG*dG*dT*d[5mC]*d[5mC]*dT*dT*dG*d[5mC]*dA*dG*eG*eA) [compound 435644] | 30
435645 (antisense eG*eG*dA*dG*d[5mC]*dT*dG*dG*dT*d[5mC]*d[5mC]*dT*eT*eG) [compound 435645] | 44
435646 (antisense eT*eA*dG*dG*dA*d[5mC]*dT*dG*dG*dA*dG*d[5mC]*eT*eG) [compound 435646] | 13
435647 (antisense eA*eG*dA*dT*dA*dT*dA*dG*dG*dA*d[5mC]*dT*eG*eG) [compound 435647] | 0
435648 (antisense eG*eA*dA*dG*d[5mC]*dA*dG*dA*dT*dA*dT*dA*eG*eG) [compound 435648] | 0
435649 (antisense eA*eG*dG*d[5mC]*dA*dG*dA*dA*dG*d[5mC]*dA*dG*eA*eT) [compound 435649] | 21
435650 (antisense e[5mC]*e[5mC]*dG*dG*d[5mC]*d[5mC]*d[5mC]*dT*d[5mC]*dG*dA*dA*eG*eG) [compound 435650] | 6
435651 (antisense eA*e[5mC]*dA*dG*dT*dT*d[5mC]*d[5mC]*dG*dG*d[5mC]*d[5mC]*e[5mC]*eT) [compound 435651] | 71
435652 (antisense e[5mC]*eT*dG*dG*dT*d[5mC]*dA*dT*d[5mC]*d[5mC]*dT*dT*eG*eT) [compound 435652] | 48
435653 (antisense eA*eT*d[5mC]*dA*dG*d[5mC]*dT*dG*dG*dT*d[5mC]*dA*eT*e[5mC]) [compound 435653] | 32
435654 (antisense eG*e[5mC]*d[5mC]*dG*dT*dT*d[5mC]*dT*d[5mC]*dG*dT*dT*e[5mC]*eA) [compound 435654] | 71
435655 (antisense eA*e[5mC]*dA*dG*d[5mC]*d[5mC]*dG*d[5mC]*d[5mC]*dG*dT*dT*e[5mC]*eT) [compound 435655] | 49
435656 (antisense eA*e[5mC]*dT*dG*d[5mC]*dT*d[5mC]*dA*d[5mC]*dA*dG*d[5mC]*e[5mC]*eG) [compound 435656] | 58
435657 (antisense eG*e[5mC]*dA*dG*dT*dA*d[5mC]*dT*dG*d[5mC]*dT*d[5mC]*eA*e[5mC]) [compound 435657] | 69
435658 (antisense eT*e[5mC]*dA*d[5mC]*dT*dG*d[5mC]*dA*dG*dT*dA*d[5mC]*eT*eG) [compound 435658] | 60
435659 (antisense eT*eA*d[5mC]*d[5mC]*d[5mC]*d[5mC]*dT*d[5mC]*dG*dT*dG*dG*e[5mC]*eA) [compound 435659] | 18
435660 (antisense e[5mC]*e[5mC]*dG*dT*d[5mC]*dT*dG*d[5mC]*d[5mC]*dA*dG*d[5mC]*eA*eG) [compound 435660] | 58
435661 (antisense eG*eG*dA*d[5mC]*dA*d[5mC]*d[5mC]*d[5mC]*d[5mC]*dG*dT*d[5mC]*eT*eG) [compound 435661] | 18
435662 (antisense eT*eG*dG*dA*dT*dA*dT*dT*d[5mC]*dA*dA*d[5mC]*eT*eG) [compound 435662] | 19
435663 (antisense e[5mC]*e[5mC]*dA*d[5mC]*dA*dT*dG*dG*dA*dT*dA*dT*eT*e[5mC]) [compound 435663] | 50
435664 (antisense eT*eT*dT*dT*dT*d[5mC]*d[5mC]*dA*d[5mC]*dA*dT*dG*eG*eA) [compound 435664] | 4
435665 (antisense eA*eG*dG*dT*dA*dT*dT*dT*dT*dT*d[5mC]*d[5mC]*eA*e[5mC]) [compound 435665] | 0
435666 (antisense eG*eG*dT*dT*dT*dG*d[5mC]*dT*dG*dG*d[5mC]*dA*eT*eT) [compound 435666] | 71
435667 (antisense eA*eA*dT*dT*d[5mC]*dG*dG*d[5mC]*d[5mC]*dT*dT*dG*eG*eG) [compound 435667] | 16
